Test results as given in PubChem BioAssay AID179 (DTP/NCI, 2004).
“And” between values parts separate entries of the source, which are not always exact repeats. Equal entries are not always repeated. The source made the active and inactive calls.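 Rule for the calls: active = compounds giving half or more protection of infected cells from virus-caused growth loss, again on retest; inactive = the rest.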

Test system: CEM cells HIV-1 protection, formazan growth assay
Assay: NCI AIDS Antiviral Assay
Conditions: for IC50: measured here: growth of uninfected CEM cells
In short: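 Human CEM cells, uninfected and HIV-1-infected, received five drug concentrations, and growth was read by soluble formazan assay. Compounds giving at least 50% protection were retested; reproducible 100% protection defined confirmed active.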

SMILES | EC50 [µM] | IC50 | outcome
CC(=O)OCC1OC(n2c(-c3ccccc3)c(N=Nc3ccc(C)cc3)c(C)c(C#N)c2=S)C(OC(C)=O)C(OC(C)=O)C1OC(C)=O (stereo unspecified) | 195 | > 200 µM | 
O=c1c2ccccc2oc2nc3ccc(Cl)cc3n12 | > 37.2 | > 37.2 µM | 
CN(C)C(=O)Nc1c([N+](=O)[O-])cc(C(F)(F)F)cc1[N+](=O)[O-] |  |  | inactive
O=C1CC2C(=O)C1C(C(=O)O)C2C(=O)O (stereo unspecified) | > 1170 | > 1170 µM | 
O=C(Nc1ccc(CC2=NCCCN2)cc1)c1ccc(C(=O)Nc2ccc(CC3=NCCCN3)cc2)cc1 | > 200 | 112 µM | 
N#CCCN(C1=NN(C(=O)CC(=O)Nc2ccccc2Cl)C(c2ccccc2)C1)c1ccccc1Cl (stereo unspecified) | > 36.3 | > 36.3 µM | 
COC(=O)[C@H](CC(C)C)NC(=O)[C@H](Cc1ccccc1)N1CC2C=CC1C2 (stereo partly specified) | > 676 | > 676 µM | 
FC(F)(F)c1cccc(N(c2nc(Cl)nc(Cl)n2)c2nc(Cl)nc(Cl)n2)c1 | > 200 | > 200 µM | 
C[C@]12CCNC(=O)C=C1CC[C@@H]1C2CC[C@@]2(C)C1CC[C@@H]2OC(=O)COc1ccc(N(CCCl)CCCl)cc1 (stereo partly specified) |  |  | inactive
CC(NS(=O)(=O)c1ccc([N+](=O)[O-])cc1)C(=O)O (stereo unspecified) |  |  | inactive
CN(C)c1ccc(/C=C(\C#N)c2cccc(Cl)c2)cc1 | > 200 | 0.0631 µM | 
O=C(Nc1ccc2c(O)cc(S(=O)(=O)O)cc2c1)Nc1ccc2c(O)cc(S(=O)(=O)O)cc2c1 | 64.6 | 155 µM | 
CC(=O)OCC(OC(C)=O)C(OC(C)=O)C(OC(C)=O)C(/C=N\Nc1nc2ccccc2c(=O)[nH]1)=N/Nc1nc2ccccc2c(=O)[nH]1 (stereo unspecified) | > 100 | > 100 µM | 
O=C(O)CCNCCCCNCCC(=O)O | > 813 | > 813 µM | 
S=C1CC(c2ccccc2)Sc2ccccc2N1 (stereo unspecified) | > 200 | 95.5 µM | 
Cc1ccc(-c2c3nc(c(-c4ccc(C)cc4)c4ccc([nH]4)c(-c4ccc(C)cc4)c4nc(c(-c5ccncc5)c5ccc2[nH]5)C=C4)C=C3)cc1.Cc1ccc(-c2c3nc(c(-c4ccc(C)cc4)c4ccc([nH]4)c(-c4ccc(C)cc4)c4nc(c(-c5ccncc5)c5ccc2[nH]5)C=C4)C=C3)cc1.O=S(=O)([O-])C(F)(F)F.[Pd+2].c1ccc([PH+](CCC[PH+](c2ccccc2)c2ccccc2)c2ccccc2)cc1 | > 50.1 | 3.47 µM | 
CCOC(=O)Nc1cc2c(c(N)n1)N=C(c1ccccc1)CO2 | > 16.6 | 0.0933 µM | 
COc1ccccc1/C(=N\OCCC(=O)O)c1cccs1 |  |  | inactive
COC(=O)C1CC(C(=O)OC)c2nc3cc(C)ccc3nc21 (stereo unspecified) | > 437 | > 437 µM | 
Oc1ccccc1C=Nc1ccc(SSc2ccc(N=Cc3ccccc3O)cc2)cc1 | > 200 | 27.5 µM | 
COc1ccc2c(c1)CCC1C3(CCCC21C)OCCO3 (stereo unspecified) | > 100 | 20.4 µM | 

SMILES | EC50 [µM] | IC50 | outcome
O=C(O)CCCCC[n+]1ccccc1 | > 200 | > 200 µM | 
CN(C)/N=C1\C=C2CC[C@H](O[Si](C)(C)C(C)(C)C)[C@@]2(C)CC1 | > 200 | 12.3 µM | 
O=C(NCCCCCCNC(=O)n1cc(F)c(=O)[nH]c1=O)NCCCOCCOCCOCCOCCOCCOCCOCCOCCOCCOCCOCCOCCOCCOCCOCCOCCOCCOCCOCCOCCOCCCNC(=O)C(O)C(O)C(OC1OC(CO)C(O)C(O)C1O)C(O)CO (stereo unspecified) |  |  | inactive
N#Cc1cc2c(n(NS(=O)(=O)c3ccccc3)c1=O)CCCCC2 | > 200 | > 200 µM | 
COc1c2c(cc3c(CCc4ccccc4)cc(=O)oc13)CCC(C)(C)O2 | > 14.5 | > 14.5 µM | 
C=C(CCCCCCCCC)CC(=O)SCCNC(=O)CCNC(=O)C(O)C(C)(C)COP(=O)(O)OP(=O)(O)OCC1OC(n2cnc3c(N)ncnc32)C(O)C1OP(=O)(O)O (stereo unspecified) | > 200 | 72.4 µM | 
Cc1csc(NC23CC4CC(CC(C4)C2)C3)[n+]1C(P(=O)([O-])O)P(=O)(O)O (stereo unspecified) | > 200 | > 200 µM | 
CC(=O)OCC1OC(N2C(c3ccccc3)=CC(c3ccccc3)C(C#N)=C2S)C(OC(C)=O)C(OC(C)=O)C1OC(C)=O (stereo unspecified) | > 200 | 77.6 µM | 
O=c1c(-c2c(-c3ccccc3)oc3ccc(Cl)cc3c2=O)c(-c2ccccc2)oc2ccc(Cl)cc12 | > 200 | > 200 µM | 
Cc1nc2c(C)ccc([N+](=O)[O-])c2c(NCCCN(C)C)c1C | > 200 | 69.2 µM | 
NS(=O)(=O)OCCCCCCCOS(N)(=O)=O | > 871 | 13.5 µM | 
NCCc1nc2ccccc2[nH]1 | > 200 | > 200 µM | 
CC(=O)[O-].N.N.N.N.[Co+3].[O-][Cl+3]([O-])([O-])[O-].[OH3+] |  |  | inactive
COC(=O)C1=C(C)C=C(N2CCOCC2)C(C(=O)OC)C1c1ccccc1 (stereo unspecified) | > 200 | > 200 µM | 
CSc1ncnc2c1ncn2CCC(=O)OC(C)(C)C | > 200 | > 200 µM | 
CCOP(=O)(OCC)C(Nc1ccc(F)cc1)c1ccccc1 (stereo unspecified) | > 200 | 89.1 µM | 
COc1ccc(-c2cc(=O)c3c(O)cc(O)cc3o2)cc1Oc1ccc(-c2cc(=O)c3c(O)cc(O)cc3o2)cc1 | > 200 | 2.69 µM | 
CCCCCCCCCCSS(=O)(=O)c1ccc(C)cc1 | > 21.9 | 9.55 µM | 
N[C@@H]1c2c(Br)sc(N3CCOCC3)c2C(=O)[C@@H]1O | > 200 | 105 µM | 
COc1ccc(C(c2c(O)c3ccccc3oc2=O)c2c(O)c3ccccc3oc2=O)c(OC)c1 | > 200 | 85.1 µM | 
COC1=CC2C3Cc4c(-c5cc(OC)c(O)c6c5CC5C7C=C(OC)C(=O)CC67CCN5C)cc(OC)c(O)c4C2(CCN3C)CC1=O (stereo unspecified) | > 200 | > 200 µM and 132 µM and 117 µM | 

SMILES | EC50 [µM] | IC50 | outcome
N#CCCC(CCC#N)(CCC#N)[N+](=O)[O-] | > 200 | > 200 µM | 
COc1cc2c(c(OC)c1OC)CCc1cnoc1-2 | > 257 | > 100 µM | 
Cc1ccc2c(c1)P1c3cc(C)ccc3SP1S2 (stereo unspecified) | > 12.3 | > 12.3 µM | 
Cc1ncc([N+](=O)[O-])n1CCNC(=O)CCCn1ccnc1[N+](=O)[O-] |  |  | inactive
COc1ccc(-n2nc(C)ccc2=O)cc1 | > 1150 | 776 µM | 
OC1CCSc2ccccc21 (stereo unspecified) | > 200 | > 200 µM | 
O=C(c1ccc(Cl)cc1Cl)N(C(=O)N1CCC(c2ccccc2)CC1)c1ccccc1 | > 200 | > 200 µM | 
COCCNC(=O)C1C(=O)C(=O)N(CCOC)C1=O (stereo unspecified) |  |  | inactive
COc1cnc([C@H]2CCC3[C@@H]4CC=C5C[C@@H](OC(=O)CCC(=O)O)CC[C@]5(C)C4CC[C@@]32C)s1 (stereo partly specified) | > 51.3 | 29.5 µM | 
N#CCCCCn1cnc2c(N)ncnc21 | > 200 | > 200 µM | 
CCOC(=O)NC(=O)c1cn(CCCCCCCCCCC(=O)NCCCN2CCN(CCCNC(=O)CCCCCCCCCCn3cc(C(=O)NC(=O)OCC)c(=O)[nH]c3=O)CC2)c(=O)[nH]c1=O |  |  | inactive
O=S(=O)(O)CCC(O)S(=O)(=O)O (stereo unspecified) | > 200 | 120 µM | 
COc1cccc(CCNc2c(C#N)c3nc4ccccc4n3c3ccccc23)c1 | > 200 | 0.295 µM | 
N=C(N)SCCNC[C@@H](O)[C@@H](O)CNCCSC(=N)N | > 537 | 437 µM | 
C(=C\c1ccccc1)/C[P+](c1ccccc1)(c1ccccc1)c1ccccc1 | > 200 | 0.525 µM | 
CCOC(=O)C1(C#N)C(C#N)(C#N)C1(CC)CC (stereo unspecified) | > 200 | 66.1 µM | 
CCOC(=O)c1c2ccccc2n2c(=O)n(-c3ccccc3)nnc12 | > 200 | 35.5 µM | 
O=C1CSc2cc([N+](=O)[O-])ccc2N1 | > 123 | > 123 µM | 
Nc1nc(CCC(=O)Nc2cccc(C(F)(F)F)c2)cc(-c2ccc3ccccc3c2)n1 | > 575 | > 575 µM | 
S=C(N/N=C/c1ccco1)NC12CC3CC(CC(C3)C1)C2 |  |  | inactive
O=C1c2ccccc2C2(O)c3cc4ccccc4cc3OC12O (stereo unspecified) | > 589 | 44.7 µM | 

SMILES | EC50 [µM] | IC50 | outcome
CC(=O)OCC1OC([n+]2c([O-])cc(=O)n3ccsc32)C(OC(C)=O)C1OC(C)=O (stereo unspecified) | > 589 | > 589 µM | 
O=C1CCCC(=O)NNC(=O)NCCCCCCNC(=O)NN1 | > 30.2 | > 30.2 µM | 
O=C(CCc1ccccc1)n1cccc1CO | > 200 | 56.2 µM | 
Nc1sc(=S)nc2sc(Nc3ccccc3)nc12 | > 427 | > 427 µM | 
CC(C)NC(=O)OCc1nnn2c1C(OC(=O)NC(C)C)CC2 (stereo unspecified) |  |  | inactive
O=C(O)c1ccc(CS(=O)(=O)c2ccc([N+](=O)[O-])cc2)c([N+](=O)[O-])c1 | > 676 | 324 µM | 
CCN(CC)CCC(=O)NC1c2ccccc2Oc2ccccc21 | > 398 | 219 µM | 
CCOP(=S)(NN=C1CCC(C(C)(C)C)CC1)OCC (stereo unspecified) | > 200 | 89.1 µM | 
CCN(CC)C(=O)c1c2nc3c(C(=O)N(CC)CC)ccc(C)c3oc-2c(C)c(=O)c1N | > 200 | 83.2 µM | 
CC1=CN2C(c3ccccc3)=NON(c3ccc(C)cn3)C2C=C1 (stereo unspecified) | > 21.4 | > 21.4 µM | 
Cn1nc(N)nc1N=S(C)(C)=N | > 1320 | > 1320 µM | 
C[n+]1c2ccccc2c(CNc2ccc(S(=O)(=O)N=C(N)N)cc2)c2ccccc21 |  |  | inactive
CC1C(n2[nH]c(=O)n(C)c2=O)c2ccccc2-n2c(=O)n(C)c(=O)n21 (stereo unspecified) | > 64.6 | > 64.6 µM | 
COc1ccc(C2CC(c3c(O)ccc4ccccc34)=NN2c2ccc([N+](=O)[O-])cc2[N+](=O)[O-])cc1OC (stereo unspecified) | > 200 | 15.8 µM | 
COc1ccccc1C(C1=C(O)COC1=O)c1cc2c(cc1OC(C)=O)OCO2 (stereo unspecified) | > 200 | > 200 µM | 
NNC(=S)NCCNC(=S)NN | > 200 | > 200 µM | 
CC(=O)OC1CC2C(C)(C)C(=O)C=C[C@]2(C)C2CCC3(C)C(c4ccoc4)C(=O)C4OC43[C@]12C (stereo partly specified) |  |  | inactive
O=c1[nH]nc(Cc2ccccc2)n1-n1cnnc1 | > 200 | > 200 µM | 
c1ccc(C[P+](c2ccccc2)(c2ccccc2)c2ccc3ccccc3c2-c2c([P+](Cc3ccccc3)(c3ccccc3)c3ccccc3)ccc3ccccc23)cc1 | > 257 | 0.389 µM and 2.51 µM | 
